Test results as given in patent publication US20240335429A1, “MOLECULAR GLUE AND SALL4 DEGRADER” (National University of Singapore, priority 2021, published 2024).

Experiments:
[1] = target: T1, IKZF1 (Homo sapiens, UniProt Q13422); assay: Immunoblot of IKZF1 in SNU-398 HCC cells; assay type: cell-based; settings: SNU-398 cells
T1 construct: with immunoblots in SNU-398 HCC cells; endogenous in cells; host or cells: SNU-398 HCC cells
Procedure: (§1) RIPA buffer containing freshly added protease inhibitors (2 mM PMSF) and protease inhibitor cocktail was used for cell lysis. The lysed cells were incubated for 10 min on ice and subsequently centrifuged at 4° C. for 10 min at 14,000 rpm. The protein concentrations of cell lysates were assessed using Bradford Assay as per manufacturer's instructions. The samples were denatured using 4× Sample buffer at 95° C. for 5 min. The samples were size resolved using polyacrylamide gel (8%) and Mini-PROTEAN Tetra Cell module. The size-resolved proteins were transferred onto PVDF via electroblotting using Mini Trans-Blot® module. The membrane was blocked using 5% BSA in TBST. The membrane was incubated with appropriate primary antibody (overnight) and secondary antibody (1 h). Immobilon Crescendo Western HRP substrate was used for signal development and images were acquired using darkroom development techniques.

[2] = system: SNU-398 cells; assay: CellTiter-Glo viability assay, SNU-398; assay type: cell-based, human; settings: CellTiter-Glo
Procedure: Cells were plated in RPMI culture media (40 μL) in 384-well white, flat-bottom plates (Corning) and incubated at 37° C. in a humidified atmosphere of 5% CO2 overnight. The numbers of cells per well were 1,500 for SNU-398 and SNU-182, 750 for SNU-387, SNU-449, SNU-475 and SNU-423, and 1,000 for H661 and H1299. After overnight incubation, 10 μL of drug (1% DMSO in RPMI) at designed concentrations were added to the cells. The cells were then incubated for 16, 24, 48, 72, or 96 h at 37° C. in a humidified atmosphere of 5% CO2 before CellTiter-Glo reagent (10 μL) was dispensed to the wells. The cells were incubated at room temperature for a minimum of 10 min. After that, luminescence readings were recorded by a Microplate Reader (PHERAstar or Tecan Infinite M200 Pro) according to the manufacturer's instruction for measuring the luminescence.

[3] = system: cleaved PARP; assay: Immunoblot of cleaved PARP (apoptotic marker) in SNU-398 cells; assay type: cell-based, human; settings: SNU-398 HCC cells, 24 h
Procedure: as §1

[4] = system: c-myc; assay: Immunoblot of c-myc (SALL4 downstream target) in SNU-398 cells; assay type: cell-based, human; settings: SNU-398 HCC cells, 24 h
Procedure: as §1

[5] = target: T2, SALL4B-Nluc in H1299 cells (Homo sapiens, UniProt Q96SW2+Q9UJQ4); assay: Dual-luciferase SALL4B reporter cellular assay (main screen), Nluc/Fluc ratio; assay type: cell-based; settings: NCI-H1299, read-out: maximum degradation (Dmax) of SALL4B_Nluc
T2 construct: expressed in transfected cells
Text: (§2) SALL4A or SALL4B was cloned into the dual-luciferase plasmid (pLL3.7-EF1a-IRES-Gateway-nluc-2xHA-IRES2-fluc-hCL1-P2A-Puro from Prof. William G. Kaelin group) to create a stable cell line (H1299, SALL4 negative) that ectopically express the SALL4A or B-NanoLuc fusion protein. SALL4A or B fused to nanoluciferase (Nluc) was expressed in a multicistronic mRNA with control firefly luciferase (Fluc). The measurement of Nluc/Fluc ratio enabled the determination of SALL4 fusion protein degradation relative to the internal Fluc control, independent of effects on transcription (FIG. 1A-B).
The assay was performed as described in Example 1 except in a 1,536-well plate which allows HTS of thermal shift hits from the primary screen, searching for SALL4 small molecule binders that can degrade the oncogenic SALL4B isoform. H1299 cells that stably express SALL4A/B_Nluc_Fluc were seeded in a 1,536-well clear bottom white plate (Corning) at 2,000 cells per well in RPMI medium (6 μL) and grown overnight (16 h) at 37° C., 5% CO2. Cells were treated with 8 μM of compounds for 6 h. Nano-Glo® Dual-Luciferase® Reporter Assay System and Pherastar plate reader were used for measuring the luciferase signal, following the manufacturer's instruction. For data analysis, the Nanoluc luminescence is normalized to firefly luciferase reading and then compared to the DMSO control. The screen was performed in triplicates.
The inventors treated H1299 cells overexpressing SALL4B_Nluc and the HCC (SNU-398, SNU-182) and NSCLC cells (H661) with increasing concentrations of QE-18-WG07 and IMiDs, and assayed the SALL4B_Nluc, as well as the endogenous SALL4A and B levels by immunoblots described in Example 4.

[6] = target: T3, IKZF3 (Homo sapiens, UniProt Q9UKT9); assay: Immunoblot of IKZF3 in SNU-398 HCC cells; assay type: cell-based; settings: SNU-398 cells
T3 construct: with immunoblots in SNU-398 HCC cells; endogenous in cells; host or cells: SNU-398 HCC cells
Procedure: as §1

[7] = target: SALL4A-Nluc in H1299 cells (Homo sapiens, UniProt Q96SW2+Q9UJQ4); settings: 10 μM, H1299 cells overexpressing SALL4A-nanoluc
Text: as §2

T2 sequence (Q9UJQ4 1-616 isoform Q9UJQ4-2): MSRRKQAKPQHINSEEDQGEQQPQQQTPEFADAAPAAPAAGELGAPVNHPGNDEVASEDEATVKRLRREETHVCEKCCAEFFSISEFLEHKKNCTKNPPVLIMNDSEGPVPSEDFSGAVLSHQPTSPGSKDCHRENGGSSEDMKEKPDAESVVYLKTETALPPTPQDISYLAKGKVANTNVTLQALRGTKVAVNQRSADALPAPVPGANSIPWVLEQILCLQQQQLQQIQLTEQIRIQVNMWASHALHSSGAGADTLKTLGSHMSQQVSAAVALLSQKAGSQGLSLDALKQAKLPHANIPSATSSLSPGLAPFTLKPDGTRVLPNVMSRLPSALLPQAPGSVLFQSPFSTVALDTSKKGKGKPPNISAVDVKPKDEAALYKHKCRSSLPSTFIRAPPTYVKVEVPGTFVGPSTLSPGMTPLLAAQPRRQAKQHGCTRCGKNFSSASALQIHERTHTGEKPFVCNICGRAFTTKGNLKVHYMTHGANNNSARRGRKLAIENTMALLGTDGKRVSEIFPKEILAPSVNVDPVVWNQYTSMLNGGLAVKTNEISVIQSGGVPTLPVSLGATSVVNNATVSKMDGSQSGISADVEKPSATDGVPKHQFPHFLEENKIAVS
T2 sequence (Q96SW2 whole entry): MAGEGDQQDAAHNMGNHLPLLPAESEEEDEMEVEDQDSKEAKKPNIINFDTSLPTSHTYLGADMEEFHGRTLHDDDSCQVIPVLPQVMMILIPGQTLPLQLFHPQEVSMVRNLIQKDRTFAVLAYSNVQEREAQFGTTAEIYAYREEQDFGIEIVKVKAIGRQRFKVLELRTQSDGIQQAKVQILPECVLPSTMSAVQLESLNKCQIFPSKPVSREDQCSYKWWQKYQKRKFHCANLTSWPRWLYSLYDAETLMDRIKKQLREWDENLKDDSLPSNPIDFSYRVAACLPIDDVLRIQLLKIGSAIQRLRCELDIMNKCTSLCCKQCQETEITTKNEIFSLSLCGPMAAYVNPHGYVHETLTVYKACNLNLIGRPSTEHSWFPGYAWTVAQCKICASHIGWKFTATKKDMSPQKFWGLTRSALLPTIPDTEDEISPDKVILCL
T2 sequence (Q16531 whole entry partner): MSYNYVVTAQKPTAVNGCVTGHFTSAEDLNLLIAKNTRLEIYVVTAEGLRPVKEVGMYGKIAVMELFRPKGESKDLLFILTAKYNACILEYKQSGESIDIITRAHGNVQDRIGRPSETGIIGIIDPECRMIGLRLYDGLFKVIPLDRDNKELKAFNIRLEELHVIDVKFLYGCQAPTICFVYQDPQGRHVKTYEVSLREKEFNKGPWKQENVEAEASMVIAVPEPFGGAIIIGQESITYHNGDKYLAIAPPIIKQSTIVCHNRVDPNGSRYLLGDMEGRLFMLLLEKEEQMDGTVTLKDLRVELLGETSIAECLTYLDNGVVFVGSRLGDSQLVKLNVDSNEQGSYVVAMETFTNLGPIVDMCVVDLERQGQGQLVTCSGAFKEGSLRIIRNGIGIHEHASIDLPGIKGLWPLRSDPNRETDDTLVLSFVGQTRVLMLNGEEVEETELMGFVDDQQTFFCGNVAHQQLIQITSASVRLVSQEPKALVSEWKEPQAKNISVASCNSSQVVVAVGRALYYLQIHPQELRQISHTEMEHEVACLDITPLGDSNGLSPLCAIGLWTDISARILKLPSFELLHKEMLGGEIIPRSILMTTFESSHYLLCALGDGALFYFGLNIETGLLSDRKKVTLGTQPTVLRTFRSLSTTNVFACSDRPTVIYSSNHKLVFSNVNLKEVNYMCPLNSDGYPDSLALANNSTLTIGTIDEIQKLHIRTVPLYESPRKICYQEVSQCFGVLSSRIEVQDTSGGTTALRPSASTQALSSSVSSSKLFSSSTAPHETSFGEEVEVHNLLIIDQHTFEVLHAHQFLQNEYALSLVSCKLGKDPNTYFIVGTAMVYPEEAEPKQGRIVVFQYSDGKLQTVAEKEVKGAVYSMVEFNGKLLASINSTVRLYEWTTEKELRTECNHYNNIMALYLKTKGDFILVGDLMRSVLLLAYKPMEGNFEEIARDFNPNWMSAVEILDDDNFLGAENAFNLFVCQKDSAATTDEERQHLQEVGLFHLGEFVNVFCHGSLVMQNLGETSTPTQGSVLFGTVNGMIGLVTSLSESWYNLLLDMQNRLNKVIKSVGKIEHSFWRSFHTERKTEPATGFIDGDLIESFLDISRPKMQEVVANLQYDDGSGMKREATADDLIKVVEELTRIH
T3 sequence (Q9UKT9 whole entry): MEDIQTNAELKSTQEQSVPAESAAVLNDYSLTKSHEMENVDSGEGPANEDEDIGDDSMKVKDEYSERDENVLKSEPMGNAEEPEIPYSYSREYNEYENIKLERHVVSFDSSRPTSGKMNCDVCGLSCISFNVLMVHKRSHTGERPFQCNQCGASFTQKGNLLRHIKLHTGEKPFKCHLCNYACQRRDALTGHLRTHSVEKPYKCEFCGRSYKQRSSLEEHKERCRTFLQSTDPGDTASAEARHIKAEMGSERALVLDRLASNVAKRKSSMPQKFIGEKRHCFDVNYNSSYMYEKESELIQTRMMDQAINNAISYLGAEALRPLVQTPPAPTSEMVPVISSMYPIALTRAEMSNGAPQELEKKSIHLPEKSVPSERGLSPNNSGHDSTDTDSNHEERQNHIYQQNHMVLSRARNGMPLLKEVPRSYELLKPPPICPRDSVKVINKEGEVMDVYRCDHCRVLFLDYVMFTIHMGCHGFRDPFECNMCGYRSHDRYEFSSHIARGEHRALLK
T1 sequence (Q13422 whole entry): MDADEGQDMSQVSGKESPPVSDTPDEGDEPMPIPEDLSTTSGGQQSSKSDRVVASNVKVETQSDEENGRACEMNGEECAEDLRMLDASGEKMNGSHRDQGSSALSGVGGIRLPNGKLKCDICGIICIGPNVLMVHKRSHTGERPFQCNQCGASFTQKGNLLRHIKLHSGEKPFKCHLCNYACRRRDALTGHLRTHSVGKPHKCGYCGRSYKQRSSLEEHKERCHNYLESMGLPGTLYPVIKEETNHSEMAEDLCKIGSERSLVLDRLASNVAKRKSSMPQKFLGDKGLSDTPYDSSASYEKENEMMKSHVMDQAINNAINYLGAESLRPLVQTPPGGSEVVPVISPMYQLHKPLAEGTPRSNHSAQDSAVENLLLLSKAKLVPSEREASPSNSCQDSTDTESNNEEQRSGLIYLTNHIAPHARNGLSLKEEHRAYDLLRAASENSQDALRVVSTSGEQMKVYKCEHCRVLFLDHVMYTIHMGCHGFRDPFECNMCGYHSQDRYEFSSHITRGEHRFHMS
Chain of SALL4A-Nluc in H1299 cells (Q96SW2 whole entry): as the sequence (Q96SW2 whole entry) above
Chain of SALL4A-Nluc in H1299 cells (Q16531 whole entry, further chain): as the sequence (Q16531 whole entry partner) above
Chain of SALL4A-Nluc in H1299 cells (Q9UJQ4 whole entry): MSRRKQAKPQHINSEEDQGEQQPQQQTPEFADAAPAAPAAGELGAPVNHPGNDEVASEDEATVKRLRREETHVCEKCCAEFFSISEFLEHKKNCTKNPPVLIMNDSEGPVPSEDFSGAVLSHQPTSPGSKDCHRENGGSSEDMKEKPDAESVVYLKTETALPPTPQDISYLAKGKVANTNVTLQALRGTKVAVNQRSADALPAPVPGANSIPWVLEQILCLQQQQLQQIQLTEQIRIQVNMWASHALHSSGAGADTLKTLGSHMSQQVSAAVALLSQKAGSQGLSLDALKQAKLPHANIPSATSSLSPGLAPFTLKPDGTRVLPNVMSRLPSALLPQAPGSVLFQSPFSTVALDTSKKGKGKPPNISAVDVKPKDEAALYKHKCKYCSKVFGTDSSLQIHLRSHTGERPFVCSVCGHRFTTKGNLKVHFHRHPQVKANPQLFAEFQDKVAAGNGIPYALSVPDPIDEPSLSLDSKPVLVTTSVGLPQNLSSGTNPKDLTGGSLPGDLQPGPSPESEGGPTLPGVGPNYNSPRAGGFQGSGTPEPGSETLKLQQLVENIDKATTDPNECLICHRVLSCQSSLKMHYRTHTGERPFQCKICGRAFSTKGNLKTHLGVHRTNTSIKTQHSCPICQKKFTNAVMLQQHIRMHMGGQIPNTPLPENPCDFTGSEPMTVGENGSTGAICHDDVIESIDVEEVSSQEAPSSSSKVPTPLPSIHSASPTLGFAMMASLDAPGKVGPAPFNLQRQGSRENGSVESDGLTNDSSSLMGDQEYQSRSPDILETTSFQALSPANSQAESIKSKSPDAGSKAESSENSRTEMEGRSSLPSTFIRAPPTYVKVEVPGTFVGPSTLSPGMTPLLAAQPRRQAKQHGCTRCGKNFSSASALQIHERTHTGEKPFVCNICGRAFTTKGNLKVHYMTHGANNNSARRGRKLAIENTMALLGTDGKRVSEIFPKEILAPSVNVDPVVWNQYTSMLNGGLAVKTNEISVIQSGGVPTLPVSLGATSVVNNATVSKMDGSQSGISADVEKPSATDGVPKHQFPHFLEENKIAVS

| Dmax [1] | Dmax [5] | Dmax [6] | time at which inhibition of SALL4A-Nluc signal became saturated [7] | SMILES | effect on SNU-398 cell growth [2] | cleavage of PARP (apoptosis induction) [3] | effect on the level of c-myc [4] |
| --- | --- | --- | --- | --- | --- | --- | --- |
| 64% | 17% | 39% |  | O=C1CCC(N2C(=O)c3ccccc3C2=O)C(=O)N1 (stereo not drawn) [Thalidomide, reference compound] | did not result in any antiproliferative consequences | no cleavage of PARP observed | did not affect |
|  | 17% |  | 8 h | Nc1cccc2c1C(=O)N(C1CCC(=O)NC1=O)C2=O (stereo not drawn) [Pomalidomide, reference compound] | did not result in any antiproliferative consequences |  |  |
